Measured values taken from patent publication US20070185132A1, “Cyclopropyl group substituted oxazolidinone antibiotics and derivatives thereo” (priority 2003, published 2007).
≈ marks a conversion by molar mass, not a printed value.

Assays:
Assay type in all cases: cell-based
[1] = test system: Moraxella catarrhalis ATCC25238; test: MIC, agar dilution method, M. catarrhalis ATCC25238; conditions: Mueller-Hinton agar, 35° C., 24 hours
Protocol: (§1) The following in vitro results were obtained based on an agar dilution method except for C. pneumoniae. The activity is presented as the minimum inhibitory concentration (MIC).
(§2) S. aureus and M. catarrhalis were tested on Mueller-Hinton agar, using an approximate inoculum of 1×10^4 cfu/spot an incubation temperature of 35° C. for 24 hours. The MIC was defined as the lowest concentration at which no visible bacterial growth was observed.

[2] = test system: Streptococcus pneumoniae IID553; test: MIC, agar dilution method, S. pneumoniae IID553; conditions: Mueller-Hinton agar with 5% defibrinated horse blood, 35° C., 5% CO2, 24 hours
Protocol: as §1
as §2, with “Streptococci” for “S. aureus”, “enterococci” for “M. catarrhalis”, “agar supplemented with 5% defibrinated horse blood,” for “agar,”, “C. in an atmosphere of 5% CO2” for “C.”

[3] = test system: Staphylococcus aureus MR (methicillin resistant); test: MIC, agar dilution method, S. aureus MR; conditions: Mueller-Hinton agar, 35° C., 24 hours
Protocol: as §1, §2

[4] = test system: Streptococcus pneumoniae PRQR (penicillin resistant, quinolone resistant); test: MIC, agar dilution method, S. pneumoniae PRQR; conditions: Mueller-Hinton agar with 5% defibrinated horse blood, 35° C., 5% CO2, 24 hours
Protocol: as §1
as §2, with “Streptococci” for “S. aureus”, “enterococci” for “M. catarrhalis”, “agar supplemented with 5% defibrinated horse blood,” for “agar,”, “C. in an atmosphere of 5% CO2” for “C.”

[5] = test system: Staphylococcus aureus Smith; test: MIC, agar dilution method, S. aureus Smith; conditions: Mueller-Hinton agar, 35° C., 24 hours
Protocol: as §1, §2

[6] = test system: Streptococcus pyogenes IID692; test: MIC, agar dilution method, S. pyogenes IID692; conditions: Mueller-Hinton agar with 5% defibrinated horse blood, 35° C., 5% CO2, 24 hours
Protocol: as §1
as §2, with “Streptococci” for “S. aureus”, “enterococci” for “M. catarrhalis”, “agar supplemented with 5% defibrinated horse blood,” for “agar,”, “C. in an atmosphere of 5% CO2” for “C.”

[7] = test system: Staphylococcus aureus CR (chloramphenicol resistant); test: MIC, agar dilution method, S. aureus CR; conditions: Mueller-Hinton agar, 35° C., 24 hours
Protocol: as §1, §2

[8] = test system: Enterococcus faecium VRQR (vancomycin resistant, quinolone resistant); test: MIC, agar dilution method, E. faecium VRQR; conditions: Mueller-Hinton agar with 5% defibrinated horse blood, 35° C., 5% CO2, 24 hours
Protocol: as §1
as §2, with “Streptococci” for “S. aureus”, “enterococci” for “M. catarrhalis”, “agar supplemented with 5% defibrinated horse blood,” for “agar,”, “C. in an atmosphere of 5% CO2” for “C.”

MIC [1]	MIC [2]	MIC [3]	MIC [4]	MIC [5]	MIC [6]	MIC [7]	MIC [8]	SMILES
2 µg/mL (≈ 4.59 µM)	0.25 µg/mL (≈ 0.574 µM)	0.125 µg/mL (≈ 0.287 µM)	0.125 µg/mL (≈ 0.287 µM)	0.125 µg/mL (≈ 0.287 µM)	0.125 µg/mL (≈ 0.287 µM)	1 µg/mL (≈ 2.3 µM)	0.5 µg/mL (≈ 1.15 µM)	N[C@@H]1[C@H]2CN(c3ccc(-c4ccc(N5C[C@H](Cn6ccnn6)OC5=O)cc4F)cn3)C[C@@H]12 [Example 32, 1-[5(R)-3-[4-[2-[(1α,5α,6α)-6-amino-3-azabicyclo[3.1.0]hexan-3-yl]pyridin-5-yl]-3-fluorophenyl]-2-oxooxazolidin-5-ylmethyl]-1,2,3-triazole]
0.5 µg/mL (≈ 1.29 µM)	0.125 µg/mL (≈ 0.323 µM)	0.06 µg/mL (≈ 0.155 µM)	0.125 µg/mL (≈ 0.323 µM)	0.06 µg/mL (≈ 0.155 µM)	0.06 µg/mL (≈ 0.155 µM)	1 µg/mL (≈ 2.59 µM)	0.125 µg/mL (≈ 0.323 µM)	N#CC1(c2ccc(-c3ccc(N4C[C@H](Cn5ccnn5)OC4=O)cc3)cn2)CC1 [Example 18, 1-[5(R)-3-[4-[2-(1-Cyanocyclopropan-1-yl)pyridin-5-yl]phenyl]-2-oxooxazolidin-5-ylmethyl]-1,2,3-triazole]
4 µg/mL (≈ 11.9 µM)	2 µg/mL (≈ 5.93 µM)	1 µg/mL (≈ 2.96 µM)	1 µg/mL (≈ 2.96 µM)	1 µg/mL (≈ 2.96 µM)	1 µg/mL (≈ 2.96 µM)	16 µg/mL (≈ 47.4 µM)	2 µg/mL (≈ 5.93 µM)	CC(=O)NC[C@H]1CN(c2ccc(N3CCOCC3)c(F)c2)C(=O)O1 [Linezolid, reference compound]
2 µg/mL (≈ 5.46 µM)	0.5 µg/mL (≈ 1.36 µM)	0.5 µg/mL (≈ 1.36 µM)	0.25 µg/mL (≈ 0.682 µM)	0.25 µg/mL (≈ 0.682 µM)	0.25 µg/mL (≈ 0.682 µM)	2 µg/mL (≈ 5.46 µM)	0.5 µg/mL (≈ 1.36 µM)	CC(=O)NC[C@H]1CN(c2ccc(-c3ccc(C4(N)CC4)nc3)cc2)C(=O)O1 [Example 5, N-[5(S)-3-[4-[2-(1-Aminocyclopropan-1-yl)pyridin-5-yl]phenyl]-2-oxooxazolidin-5-ylmethyl]acetamide]
0.5 µg/mL (≈ 1.27 µM)	0.125 µg/mL (≈ 0.317 µM)	0.125 µg/mL (≈ 0.317 µM)	0.125 µg/mL (≈ 0.317 µM)	0.06 µg/mL (≈ 0.152 µM)	0.125 µg/mL (≈ 0.317 µM)	0.5 µg/mL (≈ 1.27 µM)	0.125 µg/mL (≈ 0.317 µM)	CC(=O)NC[C@H]1CN(c2ccc(-c3ccc(C4(C#N)CC4)nc3)c(F)c2)C(=O)O1 [Example 3, N-[5(S)-3-[4-[2-(1-Cyanocyclopropan-1-yl)pyridin-5-yl]-3-fluorophenyl]-2-oxooxazolidin-5-ylmethyl]acetamide]
